This note sets out measurements from US10555919B2, “Melatonin in autoimmune disease” (The Brigham and Women's Hopsital, Inc., priority 2014, dated 2020).

Data set [1] relates to experimental autoimmune encephalitis (EAE) model of MS. The data set can be described thus: EAE in mice immunized with MOG35-55, treated daily with melatonin or vehicle. The class given is in vivo, C57BL/6 wild-type mice. To be noted: melatonin 5 mg/kg intraperitoneally daily.
For data set [2], the system named is nr1d1 reporter-transfected HEK293 cells. Kind of data set: nr1d1 promoter luciferase reporter assay. It is filed as cell-based. To be noted: nr1d1 promoter controls luciferase expression. From the text:
The IL-10 promoter reporter and C-Maf and AhR vectors were previously described (Apetoh et al., 2010), vector expressing ROR-α were purchased from PlasmID at Harvard Medical School. Vectors coding for C/EBPα (44627) and Bmal reporter (46824) were purchased from Addgene. The retrovirus used for nfil3 overexpression in T cells was graciously provided by Laura Hooper (UT Southwestern, TX, USA). The retrovirus used for nr1d1 overexpression in T cells was graciously provided by Bart Staels (Institut Pasteur, Lille, France, […]). The nr1d1 promoter reporter was graciously provide by Vincent Laudent (Ecole Normale Supérieure, Lyon, France).
HEK293 cells were grown in DMEM supplemented with 10% FBS and were transfected with FuGENE HD transfection reagent and 2 μg of each plasmids according the manufacturer's instructions (Roche). Firefly and renilla luciferase activity was analyzed 48 h after transfection and 24 h after treatment with a Dual Luciferase Assay kit (Promega).
For orientation: In a reporter assay the amount or activity of a reporter protein is the signal.

In data set [3] the test system is human CD4+ T cells activated under Tr1 polarizing conditions. The data set can be described thus: In vitro human Tr1 differentiation. The class given is cell-based. To be noted: 500 ng/ml. The text has this:
We then studied the effects of melatonin on human CD4^+ T cells. In addition, we also analyzed the effects of agomelatine, which activates melatonin-dependent signaling (Hickie and Rogers, 2011). Based on the effects of melatonin administration on T cells during EAE, we focused our studies on human Th17 and Tr1 cells. Melatonin and agomelatine reduced the production of IL-17, RORC and IL17A expression by human CD4^+ T cells activated under Th17 polarizing conditions (FIGS. 3a-c and FIG. 8), no effect was detected on the differentiation of human Th1 cells (FIGS. 3d-f). Concomitantly, melatonin and agomelatine increased IL10 expression.

Another data set deals with Tr1 cells. The data set can be described thus: In vitro mouse Tr1 cell differentiation. The class given is cell-based. As for the experimental part: (§1) Naive CD4+ T cells (CD4+CD44loCD62LhiCD25−) were from the spleen and lymph node of C57BL/6 wild-type, MTNR1A−, NFIL3−, REV-ERBα, C/EBPα-deficient or RORα-deficient mice using magnetic beads (CD4+ T cell isolation kit, Miltenyi Biotec). All experiments were started between 7 and 9 am. Cells were activated with plate-bound anti-CD3 (2 μg/ml; 14-0031-86; eBioscience) and anti-CD28 (2 μg/ml; 16-0281-86; eBioscience). Mouse IL-27 (30 ng/ml; 34-8271; Biolegend) was added for the generation of Tr1 cells. IL-6 (30 ng/ml; 406-ML-025; R&D Systems), TGF-β1 (15 ng/ml; 130-095-067; Miltenyi Biotec), anti-IL-4 (2.5 μg/ml; C17.8; Biolegend) and anti-IFN-γ (5 μg/ml; XMG1.2; Biolegend) were added for the generation of Th17 cells. Recombinant mouse IL-23 (30 ng/ml; 1887-ML-010; R&D Systems) was added at day 2. For some experiments IL-6 and […] (10 ng/ml; 401-ML-025; R&D Systems) or TGF-β1 and IL-21 (100 ng/ml; 594-ML-010; R&D Systems) were used in instead for Th17 cell differentiation. IL-12 (30 ng/ml; 419-ML-010; R&D Systems) and anti-IL-4 (2.5 μg/ml; C17.8; Biolegend) were used for the generation of Th1 cells. IL-4 (30 ng/ml; 404-ML-010; R&D Systems) and anti-IFN-γ (5 μg/ml; XMG1.2; Biolegend) was added for the generation of Th2 cells. TGF-β1 (15 ng/ml; 130-095-067; Miltenyi Biotec) was used for the generation of Foxp3+ Tregs. Melatonin (Gador, Argentina), Agomelatin, and CGP-52608 (Sigma-Aldrich) were added at the start of the cultures and at day 2, at a final concentration of 2-20 ng/ml.

In data set [4] the test system is FoxP3+ iTregs, Th1 or Th2 cells. Kind of data set: In vitro mouse differentiation of FoxP3+ iTregs, Th1 or Th2 cells. The class given is cell-based. To be noted: melatonin 2 ng/ml, 3 days. The protocol:
as §1, with “Miltenyi Biotec), anti-IL-4 (2.5 μg/ml;” left out, “R&D Systems) and anti-IL-4 (2.5 μg/ml;” left out, “Tregs.” for “Tregs. Melatonin (Gador, Argentina), Agomelatin, and CGP-52608 (Sigma-Aldrich) were added at the start of the cultures and at day 2, at a final concentration of 2-20 ng/ml.”

In a further data set the test system is 2D2+ transgenic T cells. Kind of data set: In vitro activation of naive 2D2+ transgenic T cells / CD4+ T cells (MOG35-55 and DCs or anti-CD3 and anti-CD28). The class given is cell-based, mice.

With `COc1ccc2[nH]cc(CCNC(C)=O)c2c1` [Melatonin, N-Acetyl-5-methoxytryptamine], in data set [1], the EAE clinical symptoms result is “ameliorated”, the “Mean onset day (mean ± sd)” value came out at 11.8 ± 3.0 days and the Mortality is given as 0/24. Further, the “Mean maximum score (mean ± sd)” value in data set [1] (**P < 0.05) is 2.06 ± 0.8**. In data set [1] (*P = 0.05), the “Incidence (%)” value turned out to be 65% and the “Incidence (animals)” value is reported as 17/24. The luciferase activity result in data set [2] was “decreased”. For the same compound, in data set [3], the IL-10 production result is “increased”. Also, the “expression of IL-10 and the Tr1-associated molecules il21, ahr and cmaf” value in the data set on Tr1 cells (Tr1 polarizing conditions, melatonin 2 ng/ml) is listed as “boosted”. In addition, the “suppressive activity of Tr1 cells in vitro” value with Tr1 cells (co-culture with CFSE-labeled CD4+ T cells, 48 hs) is “boosted”. In addition, in data set [4], the “differentiation of FoxP3+ iTregs, Th1 or Th2 cells” value is given as “no effects”. In addition, the “ability of melatonin-pretreated DCs to activate 2D2+ T cells” value in the data set with 2D2+ transgenic T cells (in the presence of MOG35-55) is listed as “did not affect”. The “apoptosis in CD4+ T cells (annexin V and propidium iodide staining, Bcl-xl levels)” value in the data set with 2D2+ transgenic T cells (stimulated with antibodies against CD3 and CD28, 3 days) is “did not increase”. The “in vitro activation of naive 2D2+ transgenic T cells” value with 2D2+ transgenic T cells (with MOG35-55 and DCs or with antibodies to CD3 and CD28 in the absence of DCs) was “suppressed”.
